Source: patent publication US7795226B2, “Control of radiation injury” (Biotempt B.V., priority 2006, dated 2010)

Key:
[1] = tested on: BALB/c mice exposed whole body to 10 Gy 137Cs-γ-irradiation; assay: Whole body γ-irradiation (10 Gy), peptide 1.5 hours before irradiation; type: in vivo; conditions: 10 mg/kg i.p. 1.5 hours before 10 Gy; for Watery eyes / Weight loss: affected/total; for Mortality: dead/total
Description: (§1) In the first experiment, 12-week-old female BALB/c mice were treated intraperitoneally with a single injection of either PBS (n=9) or with a peptide (LQGV (SEQ ID NO:117), VLPALP (SEQ ID NO:140), LPGCPRGVNPVVS (SEQ ID NO:114), MTRVLQGVLPALPQVVC (SEQ ID NO:113); n=8, 10 mg/kg). One and a half hours after the treatment, mice were exposed whole body to a single dose of 10 Gy ^137Cs-γ-irradiation. In the second experiment, 12-week-old female BALB/c mice were first exposed whole body to a single dose of 10 Gy ^137Cs-γ-irradiation and then 1.5 hours after the irradiation treated intraperitoneally with a single injection of either PBS (n=9) or with a peptide (n=8 or 9, 10 mg/kg).

[2] = tested on: BALB/c mice exposed whole body to 10 Gy 137Cs-γ-irradiation; assay: Whole body γ-irradiation (10 Gy), peptide 1.5 hours after irradiation; type: in vivo; conditions: 10 mg/kg i.p. 1.5 hours after 10 Gy; for Watery eyes / Weight loss: affected/total; for Mortality: dead/total
Description: as §1

[3] = tested on: LPS (E. coli 026:B6)-induced septic shock in BALB/c mice; assay: LPS-induced septic shock, single dose of peptide; type: in vivo; conditions: single dose 5 mg/kg
Description: (§2) Mice used in sepsis or septic shock experiments: Female BALB/c mice of eight to twelve weeks of age were used for all experiments. The animals were bred in our facility under specific pathogen-free conditions according to the protocols described in the […] of European Laboratory Animal Science Associations (FELASA) Working group on Animal Health (Laboratory Animals 28:1-24, 1994).
(§3) Injection protocols: For the endotoxin model, BALB/c mice were injected i.p. with 150-300 μg LPS (E. coli 026:B6; Difco Lab., Detroit, Mich., USA). Control groups were treated with PBS i.p. only. To test the effect of peptides, they were dissolved in PBS and injected i.p. at predetermined points in time after LPS treatment.
(§4) Mice were scored for sickness severity using the following measurement scheme: • 0 No abnormalities. • 1 Percolated fur, but no detectable behavior differences compared to normal mice. • 2 Percolated fur, huddle reflex, responds to stimuli (such as tap on cage), just as active during handling as healthy mouse. • 3 Slower response to tap on cage, passive or docile when handled, but still curious when alone in a new setting. • 4 Lack of curiosity, little or no response to stimuli, quite immobile. • 5 Labored breathing, inability or slow to self-right after being rolled onto back (moribund, sacrificed). • D Dead.
A first set of septic shock experiments were set up to determine which of the peptides LQG, LQGV (SEQ ID NO:117), VLPALP (SEQ ID NO:140), VLPALPQ (SEQ ID NO:143), MTR, MTRV (SEQ ID NO:119), VVC or QVVC (SEQ ID NO:118) were capable of inhibiting lipopolysaccharide (LPS)-induced septic shock in mice by treating mice with a single dose of peptide at two hours after LPS treatment. Peptides were used at 5 mg/kg bodyweight. BALB/c mice were injected i.p. with escalating doses LPS (E. coli 026:B6; Difco Lab., Detroit, Mich. USA), predetermined to be leading to 80 to 100% mortality in 24 to 72 hours.
To test the effect of peptide early in the development of shock, mice were treated at two hours or at 24 hours after treatment with varying doses of LPS by i.p. injection with test peptide at 5 mg/kg bodyweight.

[4] = tested on: high dose LPS (E. coli 026:B6)-induced septic shock in BALB/c mice; assay: high dose LPS-induced septic shock, peptide administered twice; type: in vivo; conditions: peptide twice (t = 2 and 24 hours) 5 mg/kg
Description: as §2, §3, §4
A second set of septic shock experiments were set up to determine which of the peptides LQG, LQGV (SEQ ID NO:117), VLPALP (SEQ ID NO:140), VLPALPQ (SEQ ID NO:143), MTR, MTRV (SEQ ID NO:119), VVC or AQG, AQGV (SEQ ID NO:120), LAG and LAGV (SEQ ID NO:121) were capable of inhibiting high dose LPS-induced septic shock in mice by treating mice with a double dose of peptide at two and 24 hours after LPS treatment. At each treatment, peptides were used at 5 mg/kg bodyweight. BALB/c mice were injected i.p. with high doses LPS (E. coli 026:B6; Difco Lab., Detroit, Mich. USA), predetermined to be leading to 80 to 100% mortality in 24 to 72 hours.

[5] = tested on: LPS (E. coli 026:B6)-induced sepsis in BALB/c mice; assay: endotoxin shock survival after early or late treatment with peptide; type: in vivo
Description: as §2, §3
A further set of septic shock experiments were set up to determine which of the peptides LQG, LQGV (SEQ ID NO:117), VLPALP (SEQ ID NO:140), VLPALPQ (SEQ ID NO:143), MTR, MTRV (SEQ ID NO:119), VVC or AQGV (SEQ ID NO:120) under study were most suited to be used early and/or late after or throughout the development of shock. For determining the percent of endotoxin shock survival after late or early treatment with peptide, BALB/c mice were injected i.p. with 300 μg LPS (E. coli 026:B6; Difco Lab., Detroit, Mich. USA), predetermined to be leading to 100% mortality in 48 hours without peptide treatment.
To evaluate the effect of peptide treatment at an early or late point in time of development of shock, mice were treated at two hours or at 24 hours after LPS injection by i.p. injection with test peptide at 5 mg/kg bodyweight. The mice were followed for 84 hours instead of for 48 hours in the earlier experiments.

[6] = tested on: cell-cycle marker pCDG and auxin-responsive marker DR5::GUS; assay: Arabidopsis thaliana seedling cell-cycle analysis (GUS markers)
Description: To further study anti-cell-cycle activity of various oligopeptides, a proliferation experiment in Arabidopsis Thaliana seedlings was performed. The aim was to test a group of 140 oligopeptides of varying length for their effect on plant marker gene expression during rapid growth when avid cell division occurs.
The peptides were re-suspended in 1× Phosphate Buffer Saline (PBS) pH 8 to a final concentration of 5 mg/ml. The obtained solutions were then divided through 96-well round bottom plates (Corning Incorporated) at 40 microliters per well. Plates were stored before use at […] for four days. Seeds of Arabidopsis thaliana ecotype Ws-0 were surface sterilized in 2% commercial bleach (Gloria) for ten minutes and washed five times with sterile MQ water. The seeds were then re-suspended with 0.1% agar and plated on MS20 plates supplemented with 80 mg/l Kanamycin.
The plates were placed at […] for two nights and then transferred to a climate room at […] and a 16/8 hours photoperiod. After four days of growth, the seedlings were transferred to 96-well plates containing the peptide solutions (four seedlings per well) and incubated for four and eight hours.
For this experiment, Arabidopsis homozygous seedlings harboring two reporter genes fused to GUS were used. […] After incubation with the compounds, the seedlings were stained for GUS. The staining reaction was performed in 100 mM sodium phosphate buffer (pH 7.0) that contained 10 mM EDTA, 10% DMSO, 0.1% Triton X-100, 2 mM X-Gluc, 0.5 mM K3Fe(CN)6 and 0.5 mM K4Fe(CN)6 at […] for 16 hours. […] Seedlings were fixed and cleared in chloral hydrate solution for detailed microscopic observation and photography under a microscope equipped with DIC optics.
Peptides were tested for an effect on marker gene expression on rapidly growing Arabidopsis young seedlings. This was monitored by changes on GUS distribution in different organs: root, root-hypocotyl transition zone and cotyledons.

LPGCPRGVNPVVS
Watery eyes ([1]; day 0 after irradiation): 0/8
Weight loss ([1]; day 0 after irradiation): 0/8
Mortality ([1]; day 0 after irradiation): 0/8
Mortality ([1]; day 3 after irradiation): 0/8
Watery eyes ([1]; day 4 after irradiation): 1/8
Weight loss ([1]; day 4 after irradiation): 8/8
Mortality ([1]; day 4 after irradiation): 0/8
Mortality ([1]; day 5 after irradiation): 0/8
Mortality ([1]; day 6 after irradiation): 4/8
Mortality ([1]; day 7 after irradiation): 8/8
Watery eyes ([2]; day 0 after irradiation): 0/8
Weight loss ([2]; day 0 after irradiation): 0/8
Mortality ([2]; day 0 after irradiation): 0/8
Mortality ([2]; day 3 after irradiation): 0/8
Watery eyes ([2]; day 4 after irradiation): 0/8
Weight loss ([2]; day 4 after irradiation): 8/8
Mortality ([2]; day 4 after irradiation): 0/8
Mortality ([2]; day 5 after irradiation): 0/8
Mortality ([2]; day 6 after irradiation): 6/8
Mortality ([2]; day 7 after irradiation): 8/8

VVC
mice scored D (dead), effect at t = 24 hours ([3]; LPS dose 7**): 1
mice scored D (dead), effect at t = 48 hours ([3]; LPS dose 7**): 3
mice with sickness score 1, effect at t = 48 hours ([3]; LPS dose 7**): 1
mice with sickness score 2, effect at t = 48 hours ([3]; LPS dose 7**): 1
mice with sickness score 3, effect at t = 24 hours ([3]; LPS dose 7**): 2
mice with sickness score 3, effect at t = 48 hours ([3]; LPS dose 7**): 1
mice with sickness score 4, effect at t = 24 hours ([3]; LPS dose 7**): 1
mice with sickness score 5, effect at t = 24 hours ([3]; LPS dose 7**): 2
mice with sickness score 2, effect at t = 48 hours ([3]; LPS dose 7*): 4
mice with sickness score 3, effect at t = 24 hours ([3]; LPS dose 7*): 4
mice with sickness score 4, effect at t = 24 hours ([3]; LPS dose 7*): 2
mice with sickness score 5, effect at t = 48 hours ([3]; LPS dose 7*): 2
mice with sickness score 1, effect at t = 48 hours ([3]; LPS dose 10): 2
mice with sickness score 2, effect at t = 24 hours ([3]; LPS dose 10): 2
mice with sickness score 2, effect at t = 48 hours ([3]; LPS dose 10): 2
mice with sickness score 3, effect at t = 24 hours ([3]; LPS dose 10): 2
mice with sickness score 4, effect at t = 24 hours ([3]; LPS dose 10): 2
mice with sickness score 5, effect at t = 48 hours ([3]; LPS dose 10): 2
mice with sickness score 1, effect at t = 48 hours ([4]; LPS dose 10.5): 2
mice with sickness score 2, effect at t = 24 hours ([4]; LPS dose 10.5): 5
mice with sickness score 2, effect at t = 48 hours ([4]; LPS dose 10.5): 3
mice with sickness score 1, effect at t = 48 hours ([4]; LPS dose 11): 2
mice with sickness score 2, effect at t = 24 hours ([4]; LPS dose 11): 6
mice with sickness score 2, effect at t = 48 hours ([4]; LPS dose 11): 4
% Survival ([5]; 0 hours, peptide 5 mg/kg 2 hours after LPS): 100%
% Survival ([5]; 0 hours, peptide 5 mg/kg 24 hours after LPS): 100%
% Survival ([5]; 14 hours, peptide 5 mg/kg 2 hours after LPS): 100%
% Survival ([5]; 14 hours, peptide 5 mg/kg 24 hours after LPS): 100%
% Survival ([5]; 24 hours, peptide 5 mg/kg 2 hours after LPS): 100%
% Survival ([5]; 24 hours, peptide 5 mg/kg 24 hours after LPS): 100%
% Survival ([5]; 48 hours, peptide 5 mg/kg 2 hours after LPS): 80%
% Survival ([5]; 48 hours, peptide 5 mg/kg 24 hours after LPS): 100%
% Survival ([5]; 84 hours, peptide 5 mg/kg 2 hours after LPS): 50%
% Survival ([5]; 84 hours, peptide 5 mg/kg 24 hours after LPS): 100%
identified as useful peptide for treatment of radiation injury from cell-cycle studies in plants and in vitro proliferation studies ([6]; Results from Examples 9 and 10): useful
effect on cell-cycle marker (pCDG) and auxin-responsive marker (DR5::GUS) (in words) ([6]; seedlings incubated four and eight hours, 5 mg/ml peptide solution): clear effect on the tested markers
